Results taken from ChEMBL document CHEMBL3425406, “Design, Synthesis, and Evaluation of Tetrasubstituted Pyridines as Potent 5-HT2C Receptor Agonists” (ACS Med Chem Lett, 2015).

Columns and labels:
[1] = Permeability across dog RRCK cells; format: ADME, cell-based, Canis lupus familiaris, MDCKII-LE; settings: MDCK, read-out: permeability
[2] = target: T1, 5-hydroxytryptamine receptor 2B (Homo sapiens, UniProt P41595); experiment: Agonist activity at human recombinant 5-HT2B receptor expressed in CHOK1 cells assessed as induction of Ca2+ mobilization at 30 uM after 1 hr by FLIPR assay relative to 5-HT; format: functional, cell-based; settings: CHO-K1
T1 sequence (P41595 whole entry): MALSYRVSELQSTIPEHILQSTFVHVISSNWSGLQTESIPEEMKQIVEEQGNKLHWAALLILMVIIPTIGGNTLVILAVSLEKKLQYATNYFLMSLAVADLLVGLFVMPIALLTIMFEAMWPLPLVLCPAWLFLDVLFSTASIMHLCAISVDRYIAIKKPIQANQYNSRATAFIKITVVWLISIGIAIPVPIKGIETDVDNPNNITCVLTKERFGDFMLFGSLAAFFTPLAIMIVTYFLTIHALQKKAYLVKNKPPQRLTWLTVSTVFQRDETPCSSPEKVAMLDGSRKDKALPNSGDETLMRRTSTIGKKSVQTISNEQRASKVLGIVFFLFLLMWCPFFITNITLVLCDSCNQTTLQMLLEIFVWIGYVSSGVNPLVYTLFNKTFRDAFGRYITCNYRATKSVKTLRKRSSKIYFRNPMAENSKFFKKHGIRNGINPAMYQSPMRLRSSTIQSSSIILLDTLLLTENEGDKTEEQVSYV

MDR1 [3] = experiment: Efflux ratio of apparent permeability across basolateral to apical over apical to basolateral side in MDCK cells expressing MDR1; format: ADME, cell-based, Canis lupus familiaris; settings: dog
[4] = target: T1, 5-hydroxytryptamine receptor 2B; experiment: Agonist activity at human recombinant 5-HT2B receptor expressed in CHOK1 cells assessed as induction of Ca2+ mobilization after 1 hr by FLIPR assay; format: functional, cell-based, CHO-K1
[5] = Lipophilicity, log D of the compound; format: physicochemical; settings: octanol/water
MDR1 [6] = experiment: Apparent permeability across apical to basolateral side in MDCK cells expressing MDR1; format: ADME, cell-based, Canis lupus familiaris; settings: dog
[7] = target: T1, 5-hydroxytryptamine receptor 2B; experiment: Inhibition of Cy3B conjugated serotonin analogue binding to human recombinant 5-HT2B receptor expressed in CHOK1 cells after 60 mins by fluorescence polarization assay; format: cell-based; settings: CHO-K1

Structure (SMILES)	Papp [1] [×10⁻⁶ cm/s]	Emax [2] [%]	efflux ratio (MDR1 [3])	EC50 [4] [nM]	logD [5]	Papp A→B (MDR1 [6]) [×10⁻⁶ cm/s]	Kb [7] [nM]
c1ccc(Cc2cc3c(c(NCC4CC4)n2)CCNCC3)cc1	2	51	6.1	22	1.2	0.8	–
c1ccc(Cc2cc3c(cn2)CCNCC3)cc1	18	53	1.5	27	0.5	3.9	–
CC(C)Nc1nc(Cc2ccccc2)cc2c1CCNCC2	12	32	–	33	1	–	–
CNc1nc(Cc2ccccc2)cc2c1CCNCC2	8	69	2.8	1480	0.4	2.5	–
CCNc1nc(Cc2ccccc2)cc2c1CCNCC2	7	28	2.3	18	0.6	1.8	–
c1ccc(CNc2nc(Cc3ccccc3)cc3c2CCNCC3)cc1	2	–	3.6	–	1.7	0.6	121
CN(C)c1nc(Cc2ccccc2)cc2c1CCNCC2	8	38	2.2	30	0.6	2.1	–
CCCNc1nc(Cc2ccccc2)cc2c1CCNCC2	4	38	3.5	27	1	1.5	–
CC(C)CNc1nc(Cc2ccccc2)cc2c1CCNCC2	–	–	–	–	1.7	–	–
